The values below come from patent US20140221301A1, “COMBINATION TREATMENT FOR CANCER” (priority 2011, published 2014).

Common to all, as to type: cell-based, human
One assay concerns TEX cells. The assay can be described thus: ROS generation (DCF-DA, DHE) in TEX cells. Conditions: time-points up to 24 hours. Here is the method: FIG. 4. […] (A) Cells from TEX, OCI-AML2 and two primary AML patients were treated with increasing concentrations (2.5 μM and 5 μM) of tigecycline for 36 and 48 hours of tigecycline. Total proteins were extracted and analyzed by western blotting for Cox-1, Cox-2, Cox-4, grp78, XIAP, actin and tubulin. (B) TEX and AML patient cells were treated with increasing concentrations (2.5 μM and 5 μM) of tigecycline. Cox-1, Cox-2, and Cox-4 mRNA expression relative 18S was determined by quantitative RT-PCR. Data is shown as mean±SD. (C) TEX cells were treated with increasing concentrations of tigecycline and chloramphenicol (CAP) for 72 hours. Complex I, II and IV enzyme activity relative to citrate synthase activity was determined as described in materials and methods. (D) Cells from TEX, primary AML patients, and normal donors were treated with increasing concentrations of tigecycline. Mitochondrial membrane potential (ΔΨ) was determined by staining cells with JC-1 dye, and flow cytometry analysis (Red/Green ratio). Reactive oxygen species generation (ROS) was determined by staining with h2-DCFDA and Dihydroethidium (DHE).
A byproduct of the mitochondrial enzyme activities of the electron transport chain is the generation of reactive oxygen species (ROS). […] Therefore, the role of tigecycline on ROS generation in leukemia cells by analyzing hydrogen peroxide ions (H2O2) using a dichlorofluorescein dye (DCF-DA), and superoxide anions using dihydroethidium (DHE) was examined.

The test system of assay [1] is TEX cells and primary AML samples. The experiment in a line: Mitochondrial membrane potential, JC-1, leukemia cells. Particulars: 5 μM, times preceding onset of cell death. Here is the method:
FIG. 4. Tigecycline decreases mitochondrial Cox-1 protein levels in TEX cells. (A) Cells from TEX, OCI-AML2 and two primary AML patients were treated with increasing concentrations (2.5 μM and 5 μM) of tigecycline for 36 and 48 hours of tigecycline. Total proteins were extracted and analyzed by western blotting for Cox-1, Cox-2, Cox-4, grp78, XIAP, actin and tubulin. (B) TEX and AML patient cells were treated with increasing concentrations (2.5 μM and 5 μM) of tigecycline. Cox-1, Cox-2, and Cox-4 mRNA expression relative 18S was determined by quantitative RT-PCR. Data is shown as mean±SD. […] Complex I, II and IV enzyme activity relative to citrate synthase activity was determined as described in materials and methods. […] Mitochondrial membrane potential (ΔΨ) was determined by staining cells with JC-1 dye, and flow cytometry analysis (Red/Green ratio). Reactive oxygen species generation (ROS) was determined by staining with h2-DCFDA and Dihydroethidium (DHE).
To measure mitochondrial membrane potential, cells were treated with tigecycline similarly as described above and then washed twice with PBS and incubated with 5 μM of 5,5′,6,6′-tetrachloro-1,1′,3,3′-tetraethyl benzimidazolylcarbocyanine iodide (JC-1, Sigma-Aldrich) for 20 minutes at 37° C. Each sample was then washed twice with 1 mL PBS and resuspended in 500 μL PBS prior to being read on a BD FACSCalibur. […]

Another assay has as its system M9-ENL1 cells. The experiment in a line: Chemical screen, MTS assay, M9-ENL1 cells. Conditions: 10 μM, 48 hours. An excerpt: To identify compounds active against leukemia stem cells, a library of drugs (n=312) with well-characterized pharmacokinetics and toxicology and a wide therapeutic window was compiled. This library was then screened to identify agents that reduced the viability of TEX and M9-ENL1 cells. TEX and M9-ENL1 cells were derived from lineage-depleted human cord blood cells (Lin-CB) transduced with TLS-ERG or MLL-ENL oncogenes, respectively, and, as shown previously, display properties of stem cells including hierarchal differentiation and marrow repopulation^14, 15. In this screen, TEX and M9-ENL1 cells were treated with aliquots of the compounds. After incubation, cell growth and viability was measured by the MTS assay. From this screen, tigecycline was identified.
TEX, and M9-ENL-1 cells were seeded into 96-well polystyrene tissue culture plates (Corning). […] 72 (TEX) and 48 (M9-ENL-1) hours after incubation, cell growth and viability was measured by MTS assay. […]
Cell growth and viability was assessed by the MTS assay (Promega, Madison, Wis.) according to the manufacturer's instructions. Apoptosis and cell death was measured by Annexin V-fluroscein isothiocyanate (FITC; Biovision Research Products, Mountain View, Calif.), propidium iodide staining and flow cytometry according to the manufacturer's instructions and as previously described^30. […]
A general note: Tetrazolium assays rely on reduction of a dye to a coloured formazan, in cell work by metabolically active cells.

The structures appear in SMILES notation.

As for `CN(C)c1cc(NC(=O)CNC(C)(C)C)c(O)c2c1C[C@H]1C[C@H]3[C@H](N(C)C)C(O)=C(C(N)=O)C(=O)[C@@]3(O)C(O)=C1C2=O` [tigecycline], the ROS generation entry in the assay with TEX cells is “no observed increase”. Also, in assay [1], the mitochondrial membrane potential result is recorded as “decreased”. The “cell growth and viability in screen” value in the assay with M9-ENL1 cells was “cell growth inhibitor”.
